# Measurements reported in patent publication US20070004660A1, “Synergistic Modulation of Flt3 Kinase Using Alkylquinolines and Alkylquinazolines” (priority 2005, published 2007).
# Test system: MV4-11 cells
# Test: Inhibition of MV4-11 cell proliferation (CellTiterGlo, 72 h)
# Format: cell-based
# Conditions: Homo sapiens; 72 h growth inhibition; uncertainty ±20%
row,IC50,SMILES
1,90 nM,"CS(=O)(=O)N1CCN(CCCOc2ccc3c(C4CCN(C(=O)Nc5ccc(N6CCOCC6)cc5)CC4)ncnc3c2)CC1 [Example 118, 4-{7-[3-(4-Methanesulfonyl-piperazin-1-yl)-propoxy]-quinazolin-4-yl}-piperidine-1-carboxylic acid (4-morpholin-4-yl-phenyl)-amide]"
2,53 nM,"O=C(Nc1ccc(N2CCOCC2)cc1)N1CCC(c2ncnc3cc(OCCCN4CCC[C@H]4CO)ccc23)CC1 [Example 119, (S)-4-{7-[3-(2-Hydroxymethyl-pyrrolidin-1-yl)-propoxy]-quinazolin-4-yl}-piperidine-1-carboxylic acid (4-morpholin-4-yl-phenyl)-amide]"
3,220 nM,"CN(C)C(=O)N1CCN(CCCOc2ccc3c(C4CCN(C(=O)Nc5ccc(N6CCOCC6)cc5)CC4)ncnc3c2)CC1 [Example 120, 4-(3-{4-[1-(4-Morpholin-4-yl-phenylcarbamoyl)-piperidin-4-yl]-quinazolin-7-yloxy}-propyl)-piperazine-1-carboxylic acid dimethylamide]"
4,27 nM,"CC(C)Oc1ccc(NC(=O)N2CCC(c3ncnc4cc(OCCCOS(C)(=O)=O)ccc34)CC2)cc1 [Example 121, Methanesulfonic acid 3-{4-[1-(4-isopropoxy-phenylcarbamoyl)-piperidin-4-yl]-quinazolin-7-yloxy}-propyl ester]"
5,136 nM,"CS(=O)(=O)OCCCOc1ccc2c(C3CCN(C(=O)Nc4ccc(N5CCOCC5)cc4)CC3)ncnc2c1 [Example 122, Methanesulfonic acid 3-{4-[1-(4-morpholin-4-yl-phenylcarbamoyl)-piperidin-4-yl]-quinazolin-7-yloxy}-propyl ester]"
6,47 nM,"O=C(Nc1ccc(N2CCOCC2)cc1)N1CCC(c2ncnc3cc(OCCCN4CCCC4)ccc23)CC1 [Example 124, 4-[7-(3-Pyrrolidin-1-yl-propoxy)-quinazolin-4-yl]-piperidine-1-carboxylic acid (4-morpholin-4-yl-phenyl)-amide]"
7,45 nM,"CN1CCCN(CCCOc2ccc3c(C4CCN(C(=O)Nc5ccc(N6CCOCC6)cc5)CC4)ncnc3c2)CC1 [Example 125, 4-{7-[3-(4-Methyl-[1,4]diazepan-1-yl)-propoxy]-quinazolin-4-yl}-piperidine-1-carboxylic acid (4-morpholin-4-yl-phenyl)-amide]"
